The values that follow come from PMC10907374, “G2019S selective LRRK2 kinase inhibitor abrogates mitochondrial DNA damage” (NPJ Parkinson's Disease, 2024).

Experiment [1] concerns LRRK2^G2019S/G2019S KI HEK293 cells. Briefly: Mitophagy (Mtphagy dye / Lyso dye live cell imaging) in LRRK2 G2019S/G2019S KI HEK293 cells. The class given is cell-based, human. To be noted: 100 nM 2 h pre-treatment; for basal levels of mitophagy: Mitophagy dye intensity or co-localization; for FCCP-stimulated mitophagy defect: then 20 μM FCCP 3 h. As to the method: Thirty-five mm cell culture dishes (Cellvis, D35-20-1.5-N) were coated with poly-D-lysine (Sigma-Aldrich, P7280-5MG) for 5 min, washed with cell culture grade water (Sigma-Aldrich, W3500), and allowed to dry for at least 1 h before plating. LRRK2^G2019S/G2019S KI HEK293 and wild-type cells were passaged as described above and plated at 300,000 cells per well on poly-D-lysine-coated dishes. […] Following this, cells were washed three times with serum-free medium, and a working solution of Mtphagy dye (Dojindo, MD-01) was prepared in serum-free medium according to manufacturer protocols. Cultures were incubated with Mtphagy dye for 30 min, followed by three washes with serum-free medium. Complete medium was used to prepare a 20 µM FCCP (Abcam, ab120081) or DMSO control treatment solution, which was used to treat cells for 3 h. Following treatment, cells were then washed 3 times with serum-free medium, and a working solution of Lyso dye (Dojindo, MD-01) was prepared in serum-free medium and used to treat cells for 30 min. Complete medium lacking phenol red was prepared for use in confocal live cell imaging by combining phenol red-free DMEM/F-12 (Fisher Scientific, 21-041-025), FBS (VWR, 97068-085), and penicillin-streptomycin (VWR, 45000-652). Following Lyso dye treatment, cultures were washed three times with phenol red-free medium, followed by adding fresh phenol red-free medium to cell culture dishes. MitoBright LT Deep Red (Dojindo, MT12-12) was diluted in growth medium to prepare a 0.1 μmol/l solution and was used to treat cells for 15 min for total mitochondrial staining. Live cell imaging (5% CO2, 37 °C) was performed using a Zeiss LSM 880 Confocal Laser Scanning Microscope with Zen Black software. On average, ~70 cells were analyzed for each condition per each experimental replicate.
Following imaging, files were processed using Zen Blue software, and TIFF files of each channel were obtained for analysis. ImageJ was used to obtain readouts for image analysis. All images were converted to 8-bit format. For each respective image, the Lyso dye channel was used to create a mask delineating each lysosomal focus as a region of interest (ROI). Thresholding parameters were adjusted between biological replicates as required to ensure that the Lyso dye ROI encompassed all lysosome foci appropriately, and this was used to create a mask. This was then applied to the corresponding Mtphagy dye channel image, allowing collection of Mtphgy fluorescence intensity readouts for each lysosomal focus. Outliers were removed using Prism software (GraphPad) with the coefficient of removal set to 0.2%. Data was thresholded to exclude lysosomes not containing mitochondria by excluding fluorescence values with intensities equal to or below background levels. The number of ROIs remaining after thresholding was used to quantify lysosomes containing fluorescing mitochondria (mitolysosomes). Fluorescence intensity values for all mitolysosomes per condition per biological replicate were averaged to obtain a value of mitophagy fluorescence intensity per mitolysosome. For each replicate, all values of average mitolysosome fluorescence intensity were normalized to wild-type (vehicle treated) levels for the given replicate.

Experiment [2] deals with LRRK2 in heterozygous G2019S LRRK2 PD patient-derived LCLs. Briefly: LRRK2 pSer935 western immunoblot in heterozygous G2019S LRRK2 PD patient-derived LCLs. In kind it is cell-based, human. To be noted: for decrease in LRRK2 pSer935 levels: heterozygous G2019S LRRK2 PD LCLs. As to the method: PD patient G2019S LRRK2 (n = 2) and healthy subject control (n = 2)-derived LCLs were obtained from the NINDS Coriell biorepository (ID numbers are ND00011, ND00264, ND01618, ND02559). […] LCLs were cultured at 37 °C, 5% CO2, in RPMI-1640 (Sigma-Aldrich, R8758), 15% heat-inactivated fetal bovine serum (VWR Seradigm, 97068-091) and 0.5% Penicillin/Streptomycin (Corning, 30-002-CI). […] All in vitro experiments were repeated at least three times from distinct samples.
For LRRK2-WT or G2019S-LRRK2, ~1.5 million cells were pelleted and resuspended in 75 μl of lysis buffer [(RIPA Buffer (Sigma-Aldrich, R0278-50ML), protease inhibitor cocktail (Sigma-Aldrich, P8340), and Halt phosphatase inhibitor cocktail (Thermo Fisher, 78420)]. For LCLs, five million cells were pelleted and resuspended in 100 µl of lysis buffer. For both types of cells lysates were centrifuged at 10,000 × g after a 10 min incubation on ice, and the supernatant was collected. Protein was quantified using the DC protein assay (Bio-Rad, 5000112). In total, 50 μg of protein was loaded for HEK293 LRRK2-WT or G2019S-LRRK2 cells. Due to the differing endogenous LRRK2 levels, 40 µg of ND02559, 60 µg of ND00264, or 100 µg of ND00011 and ND01618 of protein sample was loaded. Protein samples were incubated at 100 °C for 5 min with NuPAGE Sample loading dye (Thermo Fisher, NP0007) and dithiothreitol as reducing agent. After 4–20% SDS-PAGE, the blots were blocked in 5% w/v nonfat dry milk in 1X PBST (0.05% Tween 20). For our investigations, the following primary antibodies were used: mouse anti-LRRK2 N241a (Antibodies INC, 75-253, 1:5000 for HEK293 cells and 1:2000 for LCLs), rabbit anti-LRRK2 pS935 (Abcam, ab133450, 1:10,000 for HEK293 cells and 1:2000 for LCLs), mouse anti-β-actin (Novus, 8H10D10, 1:10,000), and rabbit anti-LRRK2 pS1292 (Abcam, ab203181, 1:500). The blots were then probed with fluorescent-labeled secondary antibodies, IRDye donkey anti-mouse and anti-rabbit at 1:10,000 (LI-COR, 926-32212, 926-68072), and scanned using an Odyssey Imaging scanner (LI-COR). Fluorescence intensities were quantified using ImageStudio Lite software (LI-COR), and the signal from the protein of interest was normalized to the fluorescence intensity of either LRRK2 or β-actin. Values were averaged from at least three technical replicates within a cell line, or two biological replicates (two healthy control lines and two PD LCLs). All blots were derived from the same experiment and processed in parallel.
On the technique in general: Immunoblotting shows a protein as a band on a membrane.

Where “and” joins values, the source holds several entries; their conditions need not be identical. Identical values can stand only once. Entries after “also recorded” stand apart in the source; their conditions may differ.

On to `CC1=C(C(=O)Nc2ccc3[nH]nc(-c4ccnc(N5CCOCC5)c4)c3c2)C(C)(C)n2nnnc2N1C` [EB-42168], for which, in experiment [1], the “basal levels of mitophagy” value is “did not impact” and the FCCP-stimulated mitophagy defect result is on record as “failed to rescue”. The “decrease in LRRK2 pSer935 levels” value in experiment [2] (10 nM, 2 h) is ~ 30% and 25%. In addition, in experiment [2] (100 nM, 2 h), the “decrease in LRRK2 pSer935 levels” value is about 40%. For the same compound, the “decrease of LRRK2 pSer935” value in experiment [2] (human PD patient-derived cells heterozygous for G2019S LRRK2, concentration not given) is “about 40%”.

Take `C[C@@H]1CN(c2cc(-c3n[nH]c4ccc(OC5(C)CC5)cc34)ncn2)C[C@H](C)O1` [MLi-2, reference compound]: in experiment [1], the “basal levels of mitophagy” value was “did not impact” and the FCCP-stimulated mitophagy defect result is listed as “failed to rescue”. Besides, the “effect on LRRK2 pSer935 (in words)” value in experiment [2] (G2019S LRRK2 PD LCLs, 10 and 100 nM, 2 h) is “almost completely; also recorded: almost complete”.
